In patent publication US5422344A, “Method of treating retroviral infections in mammals” (The United States of America as represented by the …, priority 1990, dated 1995):
“Also recorded” adds a separate entry of the source.

Tests used:
HIV [1] = settings: chronically infected cell lines; cited from earlier work
[2] = system: HIV-IIIB (HIV-1) replication in H9 cells; assay: HIV replication (RT activity) in acute infection of H9 cells; format: cell-based; settings: for effect on HIV replication: non-cytotoxic doses of topo II inhibitors added during HIV infection
Method: HIV-Acute Infection of H9 Cells by HIV and Drug Treatment: One ml of culture supernatant of H9/HIV-IIIB cells (10^6 /ml) was used after centrifugation (200xg, 20 min) and filtration (0.45 μm) for infecting 10^5 H9 cells in the presence or absence of different levels of CPT, m-AMSA or VP-16. Control cells received equivalent volumes of DMSO. The cells were incubated for 1 h at 37° C., pelleted, washed and resuspended in fresh media. […] (1981) J. Virol. 38: 239-48.
CPT Inhibition of HIV Replication Following Acute Infection of H9 Cells with HIV-IIIB. In order to determine appropriate concentrations of CPT which would permit cell viability and growth while inhibiting viral infection or replication, H9 cells were infected with HIV-IIIB as described above in the absence or presence of different CPT doses. The cells were incubated for 1 h at 37° C., pelleted, washed and resuspended in fresh media. Reverse transcriptase (RT) activity in the culture media was measured seven days after infection.
Since CPT is an anticancer drug and a known topo I inhibitor, its effects on HIV replication were compared to those of other anticancer drugs which are known to inhibit the related topoisomerase II enzyme.

H9 cells = assay: Cell number, viability (trypan blue dye exclusion) and growth of H9 cells; format: cell-based
HIV [3] = settings: cited from earlier work
[4] = 0.5 μM VP16, day 6 post-infect.
[5] = 0.5 μM VP16, day 7 post-infect.
[6] = 0.5 μM VP16, day 8 post-infect.
[7] = 0.5 μM VP16, day 9 post-infect.
[8] = 1.5 μM VP16, day 6 post-infect.
[9] = 1.5 μM VP16, day 7 post-infect.
[10] = 1.5 μM VP16, day 8 post-infect.
[11] = 1.5 μM VP16, day 9 post-infect.
[12] = 0.4 μM m-Amsa, day 6 post-infect.
[13] = 0.4 μM m-Amsa, day 7 post-infect.
[14] = 0.4 μM m-Amsa, day 8 post-infect.
[15] = 0.4 μM m-Amsa, day 9 post-infect.
[16] = 1 μM m-Amsa, day 6 post-infect.
[17] = 1 μM m-Amsa, day 7 post-infect.
[18] = 1 μM m-Amsa, day 8 post-infect.
[19] = 1 μM m-Amsa, day 9 post-infect.

## interferon α
HIV [1]
  suppression of HIV expression: reported to suppress HIV expression in chronically infected cell lines

## COc1cc(C2c3cc4c(cc3C(OC3OC5COC(C)OC5C(O)C3O)C3COC(=O)C23)OCO4)cc(OC)c1O (stereo not shown) [VP-16]
[2]; [4]
  RT/Cell: 26283 cpm/10^5 cells
[2]; [5]
  RT/Cell: 26143 cpm/10^5 cells
[2]; [6]
  RT/Cell: 29158 cpm/10^5 cells
[2]; [7]
  RT/Cell: 25183 cpm/10^5 cells
[2]; [8]
  RT/Cell: 32242 cpm/10^5 cells
[2]; [9]
  RT/Cell: 33626 cpm/10^5 cells
[2]; [10]
  RT/Cell: 30675 cpm/10^5 cells
[2]; [11]
  RT/Cell: 29194 cpm/10^5 cells
[2]
  effect on HIV replication: No effect on HIV replication was observed; also recorded: do not have any significant effect on HIV replication
H9 cells; [4]
  No. Cells: 1 × 10^6
H9 cells; [5]
  No. Cells: 1.6 × 10^6
H9 cells; [6]
  No. Cells: 2.4 × 10^6
H9 cells; [7]
  No. Cells: 3 × 10^6
H9 cells; [8]
  No. Cells: 1 × 10^6
H9 cells; [9]
  No. Cells: 2 × 10^6
H9 cells; [10]
  No. Cells: 2.4 × 10^6
H9 cells; [11]
  No. Cells: 4 × 10^6

## COc1cc(NS(C)(=O)=O)ccc1Nc1c2ccccc2nc2ccccc12 [m-AMSA]
[2]; [12]
  RT/Cell: 36070 cpm/10^5 cells
[2]; [13]
  RT/Cell: 25372 cpm/10^5 cells
[2]; [14]
  RT/Cell: 38594 cpm/10^5 cells
[2]; [15]
  RT/Cell: 37556 cpm/10^5 cells
[2]; [16]
  RT/Cell: 32674 cpm/10^5 cells
[2]; [17]
  RT/Cell: 40057 cpm/10^5 cells
[2]; [18]
  RT/Cell: 45558 cpm/10^5 cells
[2]; [19]
  RT/Cell: 36442 cpm/10^5 cells
[2]
  effect on HIV replication: do not have any significant effect on HIV replication
[2]; listed as m-Amsa
  effect on HIV replication: No effect on HIV replication was observed
H9 cells; [12]
  No. Cells: 4 × 10^5
H9 cells; [13]
  No. Cells: 9 × 10^5
H9 cells; [14]
  No. Cells: 1.3 × 10^6
H9 cells; [15]
  No. Cells: 2 × 10^6
H9 cells; [16]
  No. Cells: 4 × 10^5
H9 cells; [17]
  No. Cells: 7.5 × 10^5
H9 cells; [18]
  No. Cells: 1.1 × 10^6
H9 cells; [19]
  No. Cells: 2 × 10^6

## Cc1cn(C2CC(N=[N+]=[N-])C(CO)O2)c(=O)[nH]c1=O (stereo not shown) [AZT]
HIV [3]
  block of HIV infection at cell surface or at the level of reverse transcriptase: known to block HIV infection
